70 compounds from PubChem BioAssay AID179 (DTP/NCI, 2004) can be followed below.

Structures are written as SMILES. The source made the active and inactive calls.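 Rule for the calls: active = compounds giving half or more protection of infected cells from virus-caused growth loss, again on retest; inactive = the rest.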 Some results are limits rather than exact numbers.

This test concerns CEM cells HIV-1 protection, formazan growth assay. Description: NCI AIDS Antiviral Assay. Particulars: for IC50: measured here: growth of uninfected CEM cells. A digest of the protocol:
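Human CEM cells, uninfected and HIV-1-infected, exposed to five drug concentrations; growth measured by soluble formazan assay and scored as percent protection from infection, with protecting compounds retested.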

In the case of `c1ccc(N2CCN(CCCN3CCc4c([nH]c5ccccc45)C3c3cccnc3)CC2)cc1` (stereo unspecified), the EC50 is more than 2.19 µM and the IC50 is more than 2.19 µM. On to `C[C@]12CCc3nonc3C1CC[C@@H]1C2CC[C@]2(C)NC(=O)CCC12` (stereo partly specified), for which the EC50 is more than 51.3 µM and the IC50 is more than 51.3 µM. Turning to `Fc1ccc2c3c([nH]c2c1)CCNC3`, the EC50 was more than 200 µM and the IC50 is more than 200 µM.

Take `Cc1cccc2c(=O)c3c(O)cc(O)cc3n(C)c12`: the EC50 is 145 µM and the half-inhibitory concentration (IC50) was more than 200 µM. Regarding `Cc1oc(N)c(S(=O)(=O)c2cc3ccccc3n(O)c2=N)c1C`, the EC50 is more than 200 µM and the half-inhibitory concentration (IC50) came to 95.5 µM. On to `O=C1C2C3C=C4c5ccccc5N(c5ccccc5)C4(C2C(=O)N1c1ccccc1)C1C(=O)N(c2ccccc2)C(=O)C31` (stereo unspecified), for which the outcome was inactive.

Regarding `C=CCNC(=O)C(O)C(O)C(=O)NCC=C` (stereo unspecified), the EC50 was more than 1100 µM and the half-inhibitory concentration (IC50) is more than 1100 µM.

As for `O=[N+]([O-])c1cc(SSc2ccc(Cl)c([N+](=O)[O-])c2)ccc1Cl`, the EC50 was more than 60.3 µM and the IC50 stood at 13.2 µM.

As for `O=C(Nc1c(Cl)cc([N+](=O)[O-])cc1Cl)C(=O)C(C1OC(=O)c2ccccc21)[N+](=O)[O-]` (stereo unspecified), the EC50 is more than 57.5 µM and the IC50 was more than 57.5 µM. As to `COC(=O)C(NC(=O)C(CC(=O)OC(C)(C)C)NC(=O)OC(C)(C)C)C(O)c1ccccc1` (stereo unspecified), the EC50 was more than 200 µM and the IC50 was more than 200 µM.

Turning to `CC1CC(C)(C)N2CCC(C(=O)N3Cc4cc5ccccc5nc4C3)C2O1` (stereo unspecified), the EC50 was more than 200 µM and the half-inhibitory concentration (IC50) is more than 200 µM. On to `COCc1c(C)oc2c(C)c3oc(=O)cc(C)c3cc12`, for which the EC50 is more than 110 µM and the IC50 was more than 110 µM. For `Cc1ccc(C(=O)O)cc1S(=O)(=O)Nn1cnc2ccc(S(=O)(=O)Nc3ccccc3C(=O)O)cc2c1=O`, the EC50 was more than 200 µM and the IC50 was more than 200 µM. In the case of `CCOC(=O)C(CS)NC(=O)CCCCCCCC(=O)NC(CS)C(=O)OCC` (stereo unspecified), the EC50 is more than 200 µM and the IC50 stood at 102 µM. As to `CCN1c2cc(Br)cc3[nH]c(=S)n(c23)CCC1C` (stereo unspecified), the EC50 is 3.72 µM and the half-inhibitory concentration (IC50) amounted to 112 µM. For `CCCC[n+]1cc(C(N)=O)cc2ccccc21`, in that order: 0.0692 µM and 219 µM. `COc1ccc2c(c1)CC[C@@H]1C2CC[C@]2(C)C(=C=CP(=O)(O)O)CCC12` (stereo partly specified): the EC50 was more than 200 µM and the IC50 is more than 200 µM. For `O=S(=O)(/C=C/c1ccc(F)cc1)Cc1ccc(CS(=O)(=O)/C=C/c2ccc(F)cc2)cc1`, the EC50 was more than 27.5 µM and the IC50 was more than 27.5 µM.

For the compound `CC1(C)OC(=O)N(c2ccccc2)C12C=Cc1cc([N+](=O)[O-])ccc1O2` (stereo unspecified), the EC50 is more than 151 µM and the IC50 turned out to be 61.7 µM. The like results for `COc1cccc(C2c3cc4c(cc3OC(N3CCOCC3)C2C)OCO4)c1O` (stereo unspecified) were, in that order, more than 200 µM and 3.09 µM.

On to `COC1=CC(=O)O[C@]2(C)OCC(C)C(O)=C12` (stereo partly specified), for which the EC50 was more than 1100 µM and the IC50 is more than 1100 µM. On to `Cc1c(C)c2ccc3c(c2oc1=O)[C@@H](OC(=O)C12CCC(C)(C(=O)O1)C2(C)C)[C@@H](OC(=O)C12CCC(C)(C(=O)O1)C2(C)C)C(C)(C)O3` (stereo partly specified), for which the EC50 was 0.245 µM and the IC50 turned out to be 123 µM. As for `O=C(Nc1ccc(NC2=NCCN2)cc1)c1ccc(C(=O)Nc2ccc(NC3=NCCN3)cc2)c([N+](=O)[O-])c1`, the EC50 was more than 200 µM and the IC50 stood at 15.1 µM.

With `COC(=O)c1sc(=NC(=S)N2CCCCC2)sc1C(=O)OC`, the result was inactive. Turning to `N#Cc1n[nH]c2nc(=S)sc(N)c12`, the EC50 was more than 1200 µM and the IC50 was 891 µM. For `Cc1cn(C2CC(O)C(CNC(=O)N(O)C3CC(n4cc(C)c(=O)[nH]c4=O)OC3CO)O2)c(=O)[nH]c1=O` (stereo unspecified), in that order: more than 200 µM and more than 200 µM.

`CC(C)(C)C1=CC(=N/N=c2\scc(-c3ccccc3)n2Cc2ccccc2)C=C(C(C)(C)C)C1=O`: the EC50 was more than 5.62 µM and the IC50 was more than 5.62 µM.

Turning to `O=C1CCC2(CC1CCSc1ccccc1)OCCO2` (stereo unspecified), the EC50 is more than 200 µM and the IC50 amounted to 126 µM. As for `O=C(/C=C/c1ccc(O)c(O)c1)O[C@H](C(=O)O)[C@H](OC(=O)/C=C/c1ccc(O)c(O)c1)C(=O)O`, the EC50 was more than 85.1 µM and the IC50 is 20 µM. With `CC1CCCN2C(=O)CN(N3CCOCC3)CC(=O)N12` (stereo unspecified), the EC50 was more than 200 µM and the IC50 is more than 200 µM. With `Nc1ncc(/C=N/O)c(NCC2(CO)CC(CCc3ccccc3)C2)n1` (stereo unspecified), the EC50 was more than 2 µM and the IC50 came to 0.603 µM. For `O=C1C(O)=C(O)C(=O)C(O)=C1O`, in that order: more than 200 µM and more than 200 µM. The like results for `NCc1ccccc1C1CSCSC1` were, in that order, more than 575 µM and 288 µM. For `COc1ccccc1NC(=O)/C(=C\N1C(=O)CC(=O)NC1=S)C(C)=O`, the EC50 is more than 200 µM and the IC50 is more than 200 µM. Take `CCOC(=O)c1cc(-c2ccc(OC)cc2)c([N+](=O)[O-])n1C`: the EC50 is more than 200 µM and the IC50 amounted to 32.4 µM. The like results for `c1ccc(C2N3CCCCC3[C@@H]3c4[nH]c5ccccc5c4CCN23)nc1` (stereo partly specified) were, in that order, more than 105 µM and more than 105 µM. For `CN(C)CCN(C)CCC(=O)/C=C/c1ccccc1`, the result was inactive.

For `COC(=O)C1=C(C)C(=O)C2(CCCCCC2C(=O)OC)C1` (stereo unspecified), the EC50 is more than 200 µM and the IC50 was more than 200 µM. On to `Cc1cccc(C)c1NC(=O)CCC(=O)NC(N)=S`, for which the EC50 was more than 339 µM and the 50% inhibitory concentration (IC50) is more than 339 µM. On to `C[Si](C)(c1ccccc1)C1CC(=O)CC(=O)C1`, for which the EC50 was more than 380 µM and the IC50 is 245 µM. With `COC(=O)[C@@H]1N2C(=S)N(c3ccccc3)C(=O)[C@H]2SC1(C)C`, the EC50 was more than 200 µM and the half-inhibitory concentration (IC50) is more than 200 µM. As to `COc1ccc(S(=O)(=O)c2ccccc2[N+](=O)[O-])cc1`, the result was active. For the compound `O=C1c2ccccc2-c2c(Br)c3ccccc3c(=O)n21`, the EC50 is more than 100 µM and the IC50 worked out at 69.2 µM. Consider `O=C(NCCCCNCCCNC(=O)c1ccc([N+](=O)[O-])cc1)c1ccc([N+](=O)[O-])cc1`, for which the EC50 is more than 200 µM and the IC50 came out at 112 µM. For `CCOC(=O)/C(Br)=C/SCCC(=O)O`, in that order: more than 891 µM and 174 µM. The like results for `Cc1cc(S(=O)(=O)Nc2nnc3ccc4ccccc4n23)c(S)cc1Cl` were, in that order, more than 200 µM and 30.9 µM. Consider `N=c1oc2cc(O)ccc2cc1C(=O)NCc1ccccc1`, for which the EC50 was more than 200 µM and the IC50 amounted to 20 µM.

On to `CCNC(=O)OCCCCC=C(c1cc(Cl)c(OC)c(C(=O)OC)c1)c1cc(Cl)c(OC)c(C(=O)OC)c1`, for which the EC50 was more than 200 µM and the IC50 was determined as 14.5 µM. The like results for `N#Cc1cc([N+](=O)[O-])ccc1NC(=O)/C(=N/N)C(C(=O)c1ccc(Cl)c(Cl)c1)C1OC(=O)c2ccccc21` (stereo unspecified) were, in that order, more than 64.6 µM and more than 64.6 µM. With `COc1ccc(CNc2cnc3ccc(N)cc3n2)cc1OC`, the EC50 was more than 115 µM and the IC50 was more than 115 µM. As to `COc1cc2c(cc1OC)[C@H](C)N1CCc3cc(OC)c(OC)cc3[C@@H]1C2`, the EC50 is more than 200 µM and the IC50 is more than 200 µM.

On to `COc1cccc(NC(=O)CSc2nnc(-c3ccc(NC(C)=O)cc3)o2)c1`, for which the EC50 is more than 64.6 µM and the IC50 was more than 64.6 µM. As to `Nc1c2ccccc2nc2ccc(C(=O)Nc3ccc(S(N)(=O)=O)cc3)cc12`, the EC50 is more than 200 µM and the IC50 was more than 200 µM. As for `CCCCCNC(=O)C1C(=O)N(CCCCC)C(=O)/C1=N\N` (stereo unspecified), the EC50 was more than 12 µM and the IC50 is more than 12 µM.

Take `CSc1ncc(Br)c(Nc2c[nH]c(=O)[nH]c2=O)n1`: the EC50 was more than 200 µM and the IC50 is more than 200 µM. Take `Cc1ccc(C)c(NC(=O)CC/C(=N\NC(=O)C(N)=O)C(C)C(=O)c2ccc(O)cc2)c1` (stereo unspecified): the EC50 is more than 155 µM and the half-maximal inhibitory concentration (IC50) is more than 155 µM.

In the case of `O=C1C(=O)C(Br)(Br)C(Br)=C1Br`, the outcome was inactive. Turning to `C#CC(C)(C)OC(=O)C(=[N+]=[N-])C(C)=O`, the EC50 was more than 200 µM and the half-inhibitory concentration (IC50) was more than 200 µM. For `N#Cc1ccc(/C=C2\Cc3ccccc3C2=O)cc1`, the EC50 was more than 200 µM and the IC50 is more than 200 µM. For `O=C(O)CCc1nn2c(nc1=O)sc1ccc3ccccc3c12`, the EC50 is more than 50.1 µM and the IC50 was more than 50.1 µM. With `O=C(O)CCC1CCc2cccc(O)c2C1=O` (stereo unspecified), the outcome was inactive.

Take `CCc1cccc(CC)c1N=C(NC(=O)c1ccc(Br)cc1)SC`: the EC50 is more than 200 µM and the IC50 is more than 200 µM. Take `Nc1cc(N2CCCC2)nc(=O)n1Cc1ccccc1`: the outcome was inactive.

Consider `CCCCCCCCCCCCN1C=C(C(N)=O)C(S(=O)(=O)O)c2ccccc21` (stereo unspecified), for which the EC50 is 6.61 µM and the IC50 is 25.1 µM. Take `COc1ccc2cc1Oc1ccc(cc1)C[C@@H]1c3cc(c(OC)cc3CCN1C)Oc1c(O)c(OC)cc3c1CCN(C)C3C2` (stereo partly specified): the result was inactive. Consider `CCOc1ccc(N=NC2C(=O)N(C(=O)CC(=O)Nc3ccc(Cl)cc3)N=C2C)cc1` (stereo unspecified), for which the EC50 was more than 200 µM and the IC50 is more than 200 µM.

With `CC(=O)OC1C(C)OC(OC2[C@@H]3C=CO[C@@H](OC4OC(CO)C(O)C(O)C4O)[C@@H]3[C@@]3(CO)O[C@@H]23)C(OC(=O)/C=C/c2ccccc2)C1OC(=O)/C=C/c1ccccc1` (stereo partly specified), the EC50 is more than 21.9 µM and the IC50 is more than 21.9 µM. Regarding `N/N=C(\c1nc2ccc([N+](=O)[O-])cc2[nH]c1=O)C(O)c1ccc(Cl)c(Cl)c1` (stereo unspecified), the EC50 is more than 339 µM and the IC50 is 145 µM. For `O=C(Nc1ccc(Cl)c(C(F)(F)F)c1)C(=O)C(C(=O)/C=C/c1ccccc1)C1OC(=O)c2ccccc21` (stereo unspecified), in that order: more than 129 µM and 20.9 µM. As to `COc1ccc(C2=Nc3c(nc(SC)[nH]c3=O)NC(c3ccccc3)C2)cc1` (stereo unspecified), the result was inactive.

The term EC50 denotes the concentration giving half of the maximal effect. For orientation: IC50 means the concentration at which inhibition is half-maximal. A high value points to weaker potency.
